Biological target: JAK2 (Homo sapiens, UniProt O60674)
Assay: JAK2 Tyrosine Kinase Assay
Type: biochemical
Conditions: list of named compounds; read-out: IC50 in the JAK2 assay
Experimental: JAK2 Tyrosine Kinase Assay
The assays were performed in V-bottom 384-well plates. […] The reaction was initiated by the combination of JAK2 with substrates and test compounds. The reaction was incubated at room temperature for 60 min. and terminated by adding 45 μl of 35 mM EDTA to each sample. The reaction mixture was analyzed on the Caliper LabChip 3000 by electrophoretic separation of the fluorescent substrate and phosphorylated product. […] Compounds were dissolved at 10 mM in dimethylsulfoxide (DMSO) and evaluated at eleven concentrations, each in duplicate. IC50 values were derived by non-linear regression analysis

Chain of JAK2 (O60674 whole entry): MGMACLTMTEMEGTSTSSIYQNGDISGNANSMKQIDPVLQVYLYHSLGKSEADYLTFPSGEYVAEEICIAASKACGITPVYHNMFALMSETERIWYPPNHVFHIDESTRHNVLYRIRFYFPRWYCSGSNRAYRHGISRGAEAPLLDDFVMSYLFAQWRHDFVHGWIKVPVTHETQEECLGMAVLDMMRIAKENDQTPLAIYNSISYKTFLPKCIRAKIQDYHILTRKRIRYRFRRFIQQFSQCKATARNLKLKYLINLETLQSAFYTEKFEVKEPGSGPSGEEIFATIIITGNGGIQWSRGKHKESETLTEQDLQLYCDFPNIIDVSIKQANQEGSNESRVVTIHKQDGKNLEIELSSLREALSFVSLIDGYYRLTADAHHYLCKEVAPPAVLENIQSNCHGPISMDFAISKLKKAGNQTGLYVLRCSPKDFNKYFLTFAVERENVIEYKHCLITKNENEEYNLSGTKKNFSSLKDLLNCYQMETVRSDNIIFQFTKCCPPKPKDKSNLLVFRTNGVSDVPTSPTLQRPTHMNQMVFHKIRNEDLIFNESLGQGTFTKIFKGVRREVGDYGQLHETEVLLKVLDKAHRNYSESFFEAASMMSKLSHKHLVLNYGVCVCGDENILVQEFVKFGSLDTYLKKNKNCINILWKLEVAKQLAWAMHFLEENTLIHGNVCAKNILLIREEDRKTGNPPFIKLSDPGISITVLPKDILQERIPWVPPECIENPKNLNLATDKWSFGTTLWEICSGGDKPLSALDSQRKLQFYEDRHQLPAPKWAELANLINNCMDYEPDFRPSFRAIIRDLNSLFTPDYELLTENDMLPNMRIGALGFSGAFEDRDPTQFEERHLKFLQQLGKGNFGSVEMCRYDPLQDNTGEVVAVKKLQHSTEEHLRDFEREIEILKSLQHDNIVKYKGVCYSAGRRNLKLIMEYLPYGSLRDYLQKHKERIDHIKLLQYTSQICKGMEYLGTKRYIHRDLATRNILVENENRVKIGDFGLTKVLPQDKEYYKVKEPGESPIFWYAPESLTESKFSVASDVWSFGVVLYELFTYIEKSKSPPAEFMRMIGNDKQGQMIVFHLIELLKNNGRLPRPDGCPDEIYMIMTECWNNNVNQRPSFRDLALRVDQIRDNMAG

| IC50 | SMILES |
| --- | --- |
| ≤ 5 nM | Cc1cc(Nc2nc(N3CCN(C(=O)[C@@H](O)Cc4ccccc4)CC3)nn3cccc23)n[nH]1 [(2S)-1-(4-(4-((5-methyl-1H-pyrazol-3-yl)amino)pyrrolo[2,1-f][1,2,4]triazin-2-yl)-1-piperazinyl)-1-oxo-3-phenyl-2-propanol] |
| ≤ 5 nM | Cc1cc(Nc2nc(N3CCN(C(=O)Cc4ccccc4Cl)CC3)nn3cccc23)n[nH]1 [2-(4-((2-chlorophenyl)acetyl)-1-piperazinyl)-N-(5-methyl-1H-pyrazol-3-yl)pyrrolo[2,1-f][1,2,4]triazin-4-amine] |
| ≤ 5 nM | Cc1cc(Nc2nc(N3CCN(C(=O)C(O)c4ccccc4F)CC3)nn3cccc23)n[nH]1 (stereo not shown) [1-(2-fluorophenyl)-2-(4-(4-((5-methyl-1H-pyrazol-3-yl)amino)pyrrolo[2,1-f][1,2,4]triazin-2-yl)-1-piperazinyl)-2-oxoethanol] |
| ≤ 5 nM | CC(=O)NC(C(=O)N1CCN(c2nc(Nc3cc(C)[nH]n3)c3cccn3n2)CC1)c1ccccc1 (stereo not shown) [N-(2-(4-(4-((5-methyl-1H-pyrazol-3-yl)amino)pyrrolo[2,1-f][1,2,4]triazin-2-yl)-1-piperazinyl)-2-oxo-1-phenylethyl)acetamide] |
| ≤ 5 nM | CO[C@@H](C(=O)N1CCN(c2nc(Nc3cc(C)[nH]n3)c3cccn3n2)CC1)c1ccccc1 [2-(4-((2R)-2-methoxy-2-phenylacetyl)-1-piperazinyl)-N-(5-methyl-1H-pyrazol-3-yl)pyrrolo[2,1-f][1,2,4]triazin-4-amine] |
| ≤ 5 nM | Cc1cc(Nc2nc(N3CCN(C(=O)c4ccccc4Br)CC3)nn3cccc23)n[nH]1 [2-(4-(2-bromobenzoyl)-1-piperazinyl)-N-(5-methyl-1H-pyrazol-3-yl)pyrrolo[2,1-f][1,2,4]triazin-4-amine] |
| ≤ 5 nM | Cc1cc(Nc2nc(N3CCN(C(=O)C(O)c4ccc(F)cc4)CC3)nn3cccc23)n[nH]1 (stereo not shown) [1-(4-fluorophenyl)-2-(4-(4-((5-methyl-1H-pyrazol-3-yl)amino)pyrrolo[2,1-f][1,2,4]triazin-2-yl)-1-piperazinyl)-2-oxoethanol] |
| ≤ 5 nM | Cc1cc(Nc2nc(N3CCN(C(=O)c4ccccc4C#N)CC3)nn3cccc23)n[nH]1 [2-((4-(4-((5-methyl-1H-pyrazol-3-yl)amino)pyrrolo[2,1-f][1,2,4]triazin-2-yl)-1-piperazinyl)carbonyl)benzonitrile] |
| ≤ 5 nM | CC[C@H](C(=O)N1CCN(c2nc(Nc3cc(C)[nH]n3)c3cccn3n2)CC1)c1ccccc1 [N-(5-methyl-1H-pyrazol-3-yl)-2-(4-((2S)-2-phenylbutanoyl)-1-piperazinyl)pyrrolo[2,1-f][1,2,4]triazin-4-amine] |
| ≤ 5 nM | Cc1cc(Nc2nc(N3CCN(C(=O)[C@H](O)CCc4ccccc4)CC3)nn3cccc23)n[nH]1 [(2R)-1-(4-(4-((5-methyl-1H-pyrazol-3-yl)amino)pyrrolo[2,1-f][1,2,4]triazin-2-yl)-1-piperazinyl)-1-oxo-4-phenyl-2-butanol] |
| ≤ 5 nM | Cc1cc(Nc2nc(N3CCN(C(=O)C(O)c4c(F)cccc4F)CC3)nn3cccc23)n[nH]1 (stereo not shown) [1-(2,6-difluorophenyl)-2-(4-(4-((5-methyl-1H-pyrazol-3-yl)amino)pyrrolo[2,1-f][1,2,4]triazin-2-yl)-1-piperazinyl)-2-oxoethanol] |

The remaining lines, values behind:

| SMILES | IC50 |
| --- | --- |
| Cc1cc(Nc2nc(N3CCN(C(=O)C4(C(F)(F)F)CCC4)CC3)nn3cccc23)n[nH]1 [N-(5-methyl-1H-pyrazol-3-yl)-2-(4-((1-(trifluoromethyl)cyclobutyl)carbonyl)-1-piperazinyl)pyrrolo[2,1-f][1,2,4]triazin-4-amine] | ≤ 5 nM |
| CC(=O)Nc1ccc(C(=O)N2CCN(c3nc(Nc4cc(C)[nH]n4)c4cccn4n3)CC2)cc1 [N-(4-((4-(4-((5-methyl-1H-pyrazol-3-yl)amino)pyrrolo[2,1-f][1,2,4]triazin-2-yl)-1-piperazinyl)carbonyl)phenyl)acetamide] | ≤ 5 nM |
| Cc1cc(Nc2nc(N3CCN(C(=O)c4ccccc4Oc4ccccc4)CC3)nn3cccc23)n[nH]1 [N-(5-methyl-1H-pyrazol-3-yl)-2-(4-(2-phenoxybenzoyl)-1-piperazinyl)pyrrolo[2,1-f][1,2,4]triazin-4-amine] | ≤ 5 nM |
| Cc1cc(Nc2nc(N3CCN(C(=O)c4cnon4)CC3)nn3cccc23)n[nH]1 [N-(5-methyl-1H-pyrazol-3-yl)-2-(4-(1,2,5-oxadiazol-3-ylcarbonyl)-1-piperazinyl)pyrrolo[2,1-f][1,2,4]triazin-4-amine] | ≤ 5 nM |
| Cc1cc(Nc2nc(N3CCN(C(=O)C4Cc5ccccc54)CC3)nn3cccc23)n[nH]1 (stereo not shown) [2-(4-(bicyclo[4.2.0]octa-1,3,5-trien-7-ylcarbonyl)-1-piperazinyl)-N-(5-methyl-1H-pyrazol-3-yl)pyrrolo[2,1-f][1,2,4]triazin-4-amine] | ≤ 5 nM |
| Cc1cc(Nc2nc(N3CCN(C(=O)Cc4cccc(OC(F)(F)F)c4)CC3)nn3cccc23)n[nH]1 [N-(5-methyl-1H-pyrazol-3-yl)-2-(4-((3-(trifluoromethoxy)phenyl)acetyl)-1-piperazinyl)pyrrolo[2,1-f][1,2,4]triazin-4-amine] | ≤ 5 nM |
| Cc1cc(Nc2nc(N3CCN(C(=O)c4c(F)cccc4Cl)CC3)nn3cccc23)n[nH]1 [2-(4-(2-chloro-6-fluorobenzoyl)-1-piperazinyl)-N-(5-methyl-1H-pyrazol-3-yl)pyrrolo[2,1-f][1,2,4]triazin-4-amine] | ≤ 5 nM |
| Cc1cc(Nc2nc(N3CCN(C(=O)c4csnn4)CC3)nn3cccc23)n[nH]1 [N-(5-methyl-1H-pyrazol-3-yl)-2-(4-(1,2,3-thiadiazol-4-ylcarbonyl)-1-piperazinyl)pyrrolo[2,1-f][1,2,4]triazin-4-amine] | ≤ 5 nM |
| Cc1cc(Nc2nc(N3CCN(C(=O)CC4CCCCC4)CC3)nn3cccc23)n[nH]1 [2-(4-(cyclohexylacetyl)-1-piperazinyl)-N-(5-methyl-1H-pyrazol-3-yl)pyrrolo[2,1-f][1,2,4]triazin-4-amine] | ≤ 5 nM |
| CC(=O)Nc1cccc(C(=O)N2CCN(c3nc(Nc4cc(C)[nH]n4)c4cccn4n3)CC2)c1 [N-(3-((4-(4-((5-methyl-1H-pyrazol-3-yl)amino)pyrrolo[2,1-f][1,2,4]triazin-2-yl)-1-piperazinyl)carbonyl)phenyl)acetamide] | ≤ 5 nM |
| Cc1ccc(C2(C(=O)N3CCN(c4nc(Nc5cc(C)[nH]n5)c5cccn5n4)CC3)CCCCC2)cc1 [2-(4-((1-(4-methylphenyl)cyclohexyl)carbonyl)-1-piperazinyl)-N-(5-methyl-1H-pyrazol-3-yl)pyrrolo[2,1-f][1,2,4]triazin-4-amine] | ≤ 5 nM |
| Cc1cc(Nc2nc(N3CCN(C(=O)c4ccoc4)CC3)nn3cccc23)n[nH]1 [2-(4-(3-furoyl)-1-piperazinyl)-N-(5-methyl-1H-pyrazol-3-yl)pyrrolo[2,1-f][1,2,4]triazin-4-amine] | ≤ 5 nM |
| Cc1cc(Nc2nc(N3CCN(C(=O)C4(C#N)CC4)CC3)nn3cccc23)n[nH]1 [1-((4-(4-((5-methyl-1H-pyrazol-3-yl)amino)pyrrolo[2,1-f][1,2,4]triazin-2-yl)-1-piperazinyl)carbonyl)cyclopropanecarbonitrile] | ≤ 5 nM |
| Cc1cc(Nc2nc(N3CCN(C(=O)c4cccn4C)CC3)nn3cccc23)n[nH]1 [N-(5-methyl-1H-pyrazol-3-yl)-2-(4-((1-methyl-1H-pyrrol-2-yl)carbonyl)-1-piperazinyl)pyrrolo[2,1-f][1,2,4]triazin-4-amine] | ≤ 5 nM |
| Cc1cc(Nc2nc(N3CCN(C(=O)Cc4cccc(C#N)c4)CC3)nn3cccc23)n[nH]1 [3-(2-(4-(4-((5-methyl-1H-pyrazol-3-yl)amino)pyrrolo[2,1-f][1,2,4]triazin-2-yl)-1-piperazinyl)-2-oxoethyl)benzonitrile] | ≤ 5 nM |
| Cc1cc(Nc2nc(N3CCN(C(=O)c4cccc(C#N)c4)CC3)nn3cccc23)n[nH]1 [3-((4-(4-((5-methyl-1H-pyrazol-3-yl)amino)pyrrolo[2,1-f][1,2,4]triazin-2-yl)-1-piperazinyl)carbonyl)benzonitrile] | ≤ 5 nM |
| Cc1cc(Nc2nc(N3CCN(C(=O)Cc4ccc(OC(F)(F)F)cc4)CC3)nn3cccc23)n[nH]1 [N-(5-methyl-1H-pyrazol-3-yl)-2-(4-((4-(trifluoromethoxy)phenyl)acetyl)-1-piperazinyl)pyrrolo[2,1-f][1,2,4]triazin-4-amine] | ≤ 5 nM |
| Cc1cc(Nc2nc(N3CCN(C(=O)c4cc(Cl)ccc4Cl)CC3)nn3cccc23)n[nH]1 [2-(4-(2,5-dichlorobenzoyl)-1-piperazinyl)-N-(5-methyl-1H-pyrazol-3-yl)pyrrolo[2,1-f][1,2,4]triazin-4-amine] | ≤ 5 nM |
| Cc1ccc(C(=O)N2CCN(c3nc(Nc4cc(C)[nH]n4)c4cccn4n3)CC2)cn1 [N-(5-methyl-1H-pyrazol-3-yl)-2-(4-((6-methyl-3-pyridinyl)carbonyl)-1-piperazinyl)pyrrolo[2,1-f][1,2,4]triazin-4-amine] | ≤ 5 nM |
| CCOc1cc(F)c(CC(=O)N2CCN(c3nc(Nc4cc(C)[nH]n4)c4cccn4n3)CC2)c(F)c1 [2-(4-((4-ethoxy-2,6-difluorophenyl)acetyl)-1-piperazinyl)-N-(5-methyl-1H-pyrazol-3-yl)pyrrolo[2,1-f][1,2,4]triazin-4-amine] | ≤ 5 nM |
| Cc1cc(Nc2nc(N3CCN(C(=O)c4ccccc4[N+](=O)[O-])CC3)nn3cccc23)n[nH]1 [N-(5-methyl-1H-pyrazol-3-yl)-2-(4-(2-nitrobenzoyl)-1-piperazinyl)pyrrolo[2,1-f][1,2,4]triazin-4-amine] | ≤ 5 nM |
| Cc1cc(Nc2nc(N3CCN(C(=O)C(c4ccc(Cl)cc4)C(C)C)CC3)nn3cccc23)n[nH]1 (stereo not shown) [2-(4-(2-(4-chlorophenyl)-3-methylbutanoyl)-1-piperazinyl)-N-(5-methyl-1H-pyrazol-3-yl)pyrrolo[2,1-f][1,2,4]triazin-4-amine] | ≤ 5 nM |
| COc1cccc(C(=O)N2CCN(c3nc(Nc4cc(C)[nH]n4)c4cccn4n3)CC2)c1 [2-(4-(3-methoxybenzoyl)-1-piperazinyl)-N-(5-methyl-1H-pyrazol-3-yl)pyrrolo[2,1-f][1,2,4]triazin-4-amine] | ≤ 5 nM |

From patent US8445676B2, “Pyrrolotriazine kinase inhibitors” (Bristol-Myers Squibb Company, priority 2008, dated 2013)
